Assay results as given in patent US12312346B2, “Pyridopyrimidine compounds and methods of their use” (Tufts Medical Center, Inc., priority 2018, dated 2025).

Tested on: human leukemia cell line HPBALL (with Notch1 mutations)
Experiment: Cell cycle (PI staining, S-G2-M cells) and cell number, HPBALL
Assay type: cell-based
Details: Homo sapiens, 144 h; HPBALL, 6 days; read-out: IC50 (inhibition of proliferation, percentage of S-G2-M cells)
Protocol: FIG. 1A is a series of charts showing representative cell cycle profiles of human leukemia cell line HPBALL (with Notch1 mutations) treated with a vehicle (V) (for ribociclib (LEE) or compound GD) or LEE or compound GD for 6 days at 1, 5, 10, and 20 μM.
FIG. 1B is a histogram summarizing the cell cycle distribution of the HPBALL cell line treated with compound GD, as described for FIG. 1A. Data shown are mean±S.D. (n=6); *P<0.05 vs its vehicle controls, t-test.
FIG. 1C is a histogram summarizing the cell cycle distribution of the HPBALL cell line treated with ribociclib (LEE), as described for FIG. 1A. Data shown are mean±S.D. (n=6); *P<0.05 vs its vehicle controls, t-test.
FIG. 1D is a chart the percentage of S-G2-M cells in FIGS. 1B and 1C. IC50 is the concentration of an inhibitor where the response (here is the inhibition of proliferation) is reduced by half.
FIG. 1E is a bar graph summarizing the cell numbers of HPBALL cells treated with either GD with different doses or LEE (20 μM) for 6 days. Data shown are mean±S.D. (n=6); *P<0.05 vs vehicles (0) control, t-test.
HCl salt of 6-acetyl-5-methyl-2-((4-(piperazin-1-ylmethyl)thiazol-2-yl)amino)pyrido[2,3-d]pyrimidin-7(8H)-one (Compound GD) prepared in Example 1 was examined for its inhibitory activity in cancer cell lines and WT and CDK6^−/− mouse embryonic fibroblasts (MEFs) and stromal vascular fractions (SVFs). […]
Table 2: Experimental Procedures: sensitivity to CDK6 kinase activity inhibition was tested by incubating different cell lines in the presence of CDK6 inhibitor GD007/PBS for either 24 hours for detecting the status of pRB-780 phosphorylation, or 5 days for determining the effect of GD007 on cell proliferation. (1) By immunoblotting (WB), we will detect phospho-pRB-S^780, one of the substrates of CDK6 kinase; (2) By using FACS analysis, we will stain treated cells with Propidium Iodide (PI), a commonly used fluorescent intercalator, to measure the subpopulation of cell cycle to reveal any impact of CDK6 inhibition on cell proliferation; (3) cell numbers will be counted using hemocytometer.

IC50: ~12 µM
Structure (SMILES): CN(C)C(=O)c1cc2cnc(Nc3ccc(N4CCNCC4)cn3)nc2n1C1CCCC1 [LEE, ribociclib, reference compound]
